For one test, the system named is EL-4 target cells. The experiment in a line: Anti-tumour CTL and/or NK cell cytolytic activity of splenocytes against EL-4 target cells. Particulars: Example 18; mice fed control diet.
The test system of a further test is EL-4 tumours. Put plainly: EL-4 tumour growth in mice (s.c. flank tumour model). The class given is in vivo, C57BL/6 mice. The conditions noted are these: for EL-4 tumour response: Example 18, 28 g Fe-Lf per 2.4 Kg diet, drugs i.p. at ~0.4 to 0.5 cm.
For test [1], the system named is Lewis lung carcinoma (LLC) tumours. Put plainly: Lewis lung carcinoma tumour growth in mice. The format is in vivo, C57BL/6 mice. Particulars: Example 18; 28 g Fe-Lf per 2.4 Kg diet; epirubucin 15 mg/Kg i.p. As for the experimental part: Tumors were established by s.c. injection of 2×10^5 EL-4 cells into the left flank of mice, and growth determined by measuring two perpendicular diameters. Animals were euthanased when tumors reached more than 1.0 cm in diameter, in accord with Animal Ethics Approval (University of Auckland). All experiments included 5 mice per treatment group, unless otherwise indicated. Paclitaxel (30 mg dissolved in 5 ml of Cremophor® EL and dehydrated alcohol) was diluted in 0.9% NaCl and administered i.p. at 30 mg/Kg. Doxorubucin in water was injected i.p. at 15 mg/Kg. The drugs were injected in a volume of 0.01 to 0.02 ml/g body weight. The expression vector encoding mouse B7-1 was prepared by cesium chloride gradient centrifugation, and diluted to 5 μg/μl in a solution of 5% glucose in 0.01% Triton X-100. It was mixed in a ratio of 1:1 (wt:wt) with DOTAP cationic liposomes (Boehringer Mannheim, Germany). Tumors were injected with 180 μl of DNA (180 μg)/liposome complexes, as described previously (Kanwar, et al., 1999 and Kanwar, et al., 2000).
Mice were fed the control diet, and the same diet supplemented with 28 g of 100% Fe-saturated lactoferrin per 2.4 Kg of diet. EL-4 (2×10^5), Lewis lung carcinoma (LLC, 2×10^5), and B16 melanoma (2×10^5) tumour cells were injected into the left flanks of C57BL/6 mice following two weeks on the Lf diets, or control diet. […]

Another test deals with IL-18. Put plainly: IL-18 production by cultured intestinal loops. The class given is cell-based, mice. Particulars: Example 20; 400 and 800 μg/ml; 48 h. As for the experimental part: Cytokine levels in the supernatants of homogenates of the small intestine were determined using a “sandwich” ELISA kit (Endogen, Woburn, Mass.). They were detected within standard curve ranges of 15-375 pg/ml for IL-4, 0-2450 pg/ml for IL-5, 15-1000 pg/ml for TNF-α, 0-3000 pg/ml for IFN-γ, 37-3000 pg/ml for IL-10, 31.3-2000 pg/ml for IL-12, and 31.3-2000 pg/ml for IL-18, respectively. Quantification of nitrite, indicative of NO production, was carried out by the Griess reaction (Sigma, USA). The results are expressed as the mean nitrite concentration (μM)±SD.
100% Fe-saturated Lf, natural Lf (less than 20% iron saturated), and bovine serum albumin control were added at 400 and 800 μg/ml to intestinal loops (2.5 cm segments of the small intestine) prepared from healthy 6 to 7 week-old female mice, which were kept in culture for 48 h. IL-18 levels released by the intestinal loops, and present in the supernatants of homogenates of the small intestine were determined using a “sandwich” ELISA kit as described above.

Method for EL-4 target cells: Splenocytes were harvested 28 days following tumour cell injection, as specified. They were incubated at 37° C. with EL-4 target cells in graded E:T ratios in 96-well round-bottom plates. After a 4-hour incubation, 50 μl of supernatant was collected, and lysis was measured using the Cyto Tox 96 Assay Kit (Promega, Madison, Wis., USA). Background controls for non-specific target and effector cell lysis were included. After background subtraction, percentage of cell lysis was calculated using the formula: 100× (experimental-spontaneous effector-spontaneous target/maximum target-spontaneous target).

Turning to `COc1cccc2c1C(=O)c1c(O)c3c(c(O)c1C2=O)C[C@@](O)(C(=O)CO)C[C@@H]3O[C@H]1C[C@H](N)[C@@H](O)[C@H](C)O1` [Epirubucin, reference compound], the “effect of drug alone on anti-tumour cytolytic activity” value (shortened to “effect of drug alone”) in the test on EL-4 target cells is “negligible effect”. Further, the EL-4 tumour response entry with EL-4 tumours was “slight delay in the growth”. In test [1], the LLC tumour response entry was “slight delay in the growth”. On to `O=P1(N(CCCl)CCCl)NCCCO1` (stereo not drawn) [cyclophosphamide, reference compound], for which, in the test on EL-4 target cells, the “effect of drug alone” value was “small increases”. In the test on EL-4 tumours, the EL-4 tumour response result is reported as “little effect”. `COc1cccc2c1C(=O)c1c(O)c3c(c(O)c1C2=O)C[C@@](O)(C(=O)CO)C[C@@H]3O[C@H]1C[C@H](N)[C@H](O)[C@H](C)O1` [doxorubicin, reference compound]: the tumour response result with EL-4 tumours (Example 6, doxorubicin 15 mg/Kg and/or paclitaxel 30 mg/Kg single dose i.p. at ~0.55 cm) is “regressed to half their size within one week of administration of doxorubicin, but then began to grow again”. Turning to `O=c1[nH]cc(F)c(=O)[nH]1` [fluorouracil, reference compound], the “effect of drug alone” value in the test on EL-4 target cells was “only slightly enhanced”. For `CN(Cc1cnc2nc(N)nc(N)c2n1)c1ccc(C(=O)N[C@@H](CCC(=O)O)C(=O)O)cc1` [methotrexate, reference compound], the “effect of drug alone” value in the test with EL-4 target cells is reported as “small increases”. Also, the EL-4 tumour response result in the test with EL-4 tumours is “no discernible effect”. With `CC(=O)O[C@H]1C(=O)[C@@]2(C)[C@H]([C@H](OC(=O)c3ccccc3)[C@]3(O)C[C@H](OC(=O)[C@H](O)[C@@H](NC(=O)c4ccccc4)c4ccccc4)C(C)=C1C3(C)C)[C@]1(OC(C)=O)CO[C@@H]1C[C@@H]2O` [paclitaxel, reference compound], the tumour response result in the test with EL-4 tumours (Example 5, paclitaxel 30 mg/Kg i.p. at 0.5 cm tumour diameter) is “grew completely unchecked”. Also, the “tumour response to paclitaxel” value with EL-4 tumours (Example 15, paclitaxel 30 mg/Kg i.p. at ~0.6 cm, 20 g Lf per 2.4 Kg diet) is listed as “completely resistant”. Regarding “bovine serum albumin: control protein in intestinal loop test [reference compound]”, the “effect on the levels of IL-18 already detectable in the intestine” value with IL-18 is “negligible effect”.

For the origin of these results see patent publication US20090202574A1, “METHODS OF IMMUNE OR HAEMATOLOGICAL ENHANCEMENT, INHIBITING TUMOUR FORMATION OR GROWTH, AND TREATING OR PREVENTING CANCER” (priority 2004, published 2009).
